Columns and labels:
α1-GABAA receptor = assay: Ligand-binding assay, competitive with radiolabeled flumazenil, cerebellum membranes; conditions: Affinity for α1-GABAA receptor, rat cerebellum membranes, radiolabeled flumazenil 1 nM; for % Inhibition 10^−5M: 10^-5M test compound; for % Inhibition 10^−7M: 10^-7M test compound
Method: (§1) Ligand-binding assays. Determination of the affinity of test compounds for α1- and α2-GABAA receptor.
(§2) Male Sprague-Dawley rats weighing 200-250 g at the time of experiment were used. After decapitation of the animal, the cerebellum (tissue that mostly contains α1-GABAA receptor) and spinal cord (tissue that mostly contains α2-GABAA receptor) were removed. The membranes were prepared according to the method by J. Lameh et al. (Prog. Neuro-Psychopharmacol. Biol. Psychiatry, 24, 979-991, 2000) and H. Noguchi et al. (Eur. J. Pharm., 434, 21-28, 2002). Once the tissues weighed, they were suspended in 50 mM Tris.HCl (pH 7.4), 1:40 (w/v), or sucrose 0.32 M in the case of spinal cord, homogenized and then centrifuged at 20,000 g for 10 min at 7° C. twice. The resulting pellet was resuspended under the same conditions and centrifuged again. The pellet was finally resuspended on a minimum volume and kept at −80° C. overnight. On the next day, the process was repeated until the final pellet was resuspended at a ratio of 1:10 (w/v) in the case of cerebellum and at a ratio of 1:5 (w/v) in the case of spinal cord.
(§3) Affinity was determined by competitive tests using radiolabeled flumazenil as ligand. The tests were performed according to the methods described by S. Arbilla et al. (Eur. J. Pharmacol., 130, 257-263, 1986); and Y. Wu et al. (Eur. J. Pharmacol., 278, 125-132, 1995) using 96-well microtiter plates. The membranes containing the study receptors, flumazenil (radiolabeling at a final concentration of 1 nM) and ascending concentrations of test compounds (in a total volume of 230 μL in 50 mM [ph 7.4] Tris.HCl buffer) were incubated. Simultaneously, the membranes were only incubated with the radiolabeled flumazenil (total binding, 100%) and in the presence of an elevated concentration of unradiolabeled flumazenil (non-specific binding, % estimation of radiolabeled ligand). The reactions started on adding the radiolabeled ligand followed by incubation for 60 minutes at 4° C. At the end of the incubation period, 200 μL of reaction were transferred to a multiscreen plate (Millipore) and filtered using a vacuum manifold and then washed three times with cold test buffer. The multiscreen plates were equipped with a GF/B filter that retained the membranes containing the receptors and the radiolabeled ligand which has been bound to the receptors. After washing, the plates were left till dry. Once dried, scintillation liquid was added and left under stirring overnight. The next day the plates were counted using a Perkin-Elmer Microbeta scintillation counter.
(§4) For analysis of the results the percentage of specific binding for every concentration of test compound was calculated as follows:
(§5) % specific binding=(X−N/T−N)×100
(§6) where, X: amount of bound ligand for every concentration of compound. T: total binding, maximum amount bound to the radiolabeled ligand. N: non-specific binding, amount of radiolabeled ligand bound in a non-specific way irrespective of the receptor used.
(§7) Every concentrations of compound were tested in triplicate and their mean values were used to determine the experimental values of % specific binding versus the concentration of compound. Affinity data are expressed as % inhibition at 10^-5M and 10^-7M concentrations.

α2-GABAA receptor = assay: Ligand-binding assay, competitive with radiolabeled flumazenil, spinal cord membranes; conditions: Affinity for α2-GABAA receptor, rat spinal cord membranes, radiolabeled flumazenil 1 nM; for % Inhibition 10^−5M: 10^-5M test compound; for % Inhibition 10^−7M: 10^-7M test compound
Method: as §1, §2, §3, §4, §5, §6, §7

mice = assay: In vivo predictive sedation-hypnosis test (inhibition of traveled distance); set-up: species or system mouse; conditions: male CD1 mice; single equimolecular intraperitoneal doses; traveled distance over 30 min after dosing (first 5 min discarded) versus control
Method: In vivo determination of predictive sedative-hypnotic action.
The in vivo effects of these compounds were assessed by a predictive sedation-hypnosis test in mice (D. J. Sanger et al., Eur. J. Pharmacol., 313, 35-42, 1996; and G. Griebel et al., Psychopharmacology, 146, 205-213, 1999).
Groups of 5-8 male CD1 mice, weighing 22-26 g at the time of test, were used. The test compounds were administered in single equimolecular intraperitoneal doses, suspended in 0.25% agar with one drop of Tween in a volume of 10 mL/kg. Control animals received the vehicle alone. Using a Smart System (Panlab, S. L., Spain) the traveled distance in cm is recorded for each mouse at 5-min intervals during a period of 30 minutes after dosing. The inhibition percentage of traveled distance of treated animals versus control animals (the first 5 min were discarded) was calculated.

Compound	% Inhibition 10^−5M (α1-GABAA receptor)	% Inhibition 10^−7M (α1-GABAA receptor)	% Inhibition 10^−5M (α2-GABAA receptor)	% Inhibition 10^−7M (α2-GABAA receptor)	% Inhibition Motor Activity (mice)
Cc1ccc(-c2nc3ccc(C)cn3c2CNC(=O)c2sccc2C)cc1 [Example 16, 3-Methyl-thiophene-2-carboxylic acid (6-methyl-2-p-tolyl-imidazo[1,2-a]pyridin-3-ylmethyl)-amide]	95.4%	2.2%	52.9%	0.0%	82.38%
Cc1ccc(-c2nc3ccc(C)cn3c2CNC(=O)c2ccnc(Cl)c2)cc1 [Example 17, 2-Chloro-N-(6-methyl-2-p-tolyl-imidazo[1,2-a]pyridin-3-ylmethyl)-isonicotinamide]	94.5%	0.0%	24.4%	0.0%	54.40%
Cc1ccc(-c2nc3ccc(C)cn3c2CNC(=O)c2ccc3ccccc3n2)cc1 [Example 19, Quinoline-2-carboxylic acid (6-methyl-2-p-tolyl-imidazo[1,2-a]pyridin-3-ylmethyl)-amide]	95.5%	0.0%	47.6%	0.0%	47.98%
Cc1ccc(-c2nc3ccc(C)cn3c2CNC(=O)c2ncc(F)cc2F)cc1 [Example 20, 3,5-Difluoro-pyridine-2-carboxylic acid (6-methyl-2-p-tolyl-imidazo[1,2-a]pyridin-3-ylmethyl)-amide]	99.8%	65.9%	95.2%	0.0%	91.99%
COc1ccc2nc(C(=O)NCc3c(-c4ccc(C)cc4)nc4ccc(C)cn34)sc2c1 [Example 21, 6-Methoxy-benzothiazole-2-carboxylic acid (6-methyl-2-p-tolyl-imidazo[1,2-a]pyridin-3-ylmethyl)-amide]	67.9%	3.5%	25.6%	0.0%	57.14%
Cc1ccc(-c2nc3ccc(C)cn3c2CN(C)C(=O)c2ccc(N(C)C)cc2)cc1 [Example 22, 4-Dimethylamino-N-methyl-N-(6-methyl-2-p-tolyl-imidazo[1,2-a]pyridin-3-ylmethyl)-benzamide]	84.8%	62.3%	9.4%	0.0%	89.45%
Cc1ccc(-c2nc3ccc(C)cn3c2CN(C)C(=O)C2CC2)cc1 [Example 24, Cyclopropanecarboxylic acid methyl-(6-methyl-2-p-tolyl-imidazo[1,2-a]pyridin-3-ylmethyl)-amide]	99.8%	75.2%	14.4%	0.0%	80.71%
COc1ccc(C(=O)N(C)Cc2c(-c3ccc(C)cc3)nc3ccc(C)cn23)cc1 [Example 25, 4-Methoxy-N-methyl-N-(6-methyl-2-p-tolyl-imidazo[1,2-a]pyridin-3-ylmethyl)-benzamide]	91.9%	26.6%	0.0%	0.0%	67.34%
Cc1ccc(-c2nc3ccc(C)cn3c2CN(C)C(=O)c2ccccn2)cc1 [Example 28, Pyridine-2-carboxylic acid methyl-(6-methyl-2-p-tolyl-imidazo[1,2-a]pyridin-3-ylmethyl)-amide]	99.8%	73.3%	93.9%	14.3%	55.64%
Cc1ccc(-c2nc3ccc(C)cn3c2CN(C)C(=O)c2cccs2)cc1 [Example 29, Thiophene-2-carboxylic acid methyl-(6-methyl-2-p-tolyl-imidazo[1,2-a]pyridin-3-ylmethyl)-amide]	99.7%	84.9%	90.2%	25.0%	93.98%
Cc1ccc(C(=O)N(C)Cc2c(-c3ccc(C)cc3)nc3ccc(C)cn23)cc1 [Example 30, 4,N-Dimethyl-N-(6-methyl-2-p-tolyl-imidazo[1,2-a]pyridin-3-ylmethyl)-benzamide]	90.5%	4.6%	33.9%	0.0%	44.36%
Cc1ccc(-c2nc3ccc(C)cn3c2CN(C)C(=O)c2ccc([N+](=O)[O-])cc2)cc1 [Example 31, N-Methyl-N-(6-methyl-2-p-tolyl-imidazo[1,2-a]pyridin-3-ylmethyl)-4-nitro-benzamide]	82.5%	1.2%	38.8%	0.0%	69.67%
Cc1ccc(-c2nc3ccc(C)cn3c2CN(C)C(=O)c2ccc([N+](=O)[O-])o2)cc1 [Example 32, 5-Nitro-furan-2-carboxylic acid methyl-(6-methyl-2-p-tolyl-imidazo[1,2-a]pyridin-3-ylmethyl)-amide]	98.0%	14.5%	77.5%	0.0%	92.66%
Cc1ccc(-c2nc3ccc(C)cn3c2CN(C)C(=O)c2ncc(F)cc2F)cc1 [Example 33, 3,5-Difluoro-pyridine-2-carboxylic acid methyl-(6-methyl-2-p-tolyl-imidazo[1,2-a]pyridin-3-ylmethyl)-amide]	98.4%	37.3%	74.0%	0.0%	35.02%
Cc1ccc(-c2nc3ccc(C)cn3c2CN(C)C(=O)c2ccnc(Cl)c2)cc1 [Example 34, 2-Chloro-N-methyl-N-(6-methyl-2-p-tolyl-imidazo[1,2-a]pyridin-3-ylmethyl)-isonicotinamide]	98.8%	39.6%	85.0%	0.0%	92.98%
